Values quoted from earlier work as cited in patent publication US20060148728A1 (priority 2000, published 2006).

Settings: in vivo; cited from earlier work

COc1cc([C@@H]2c3cc4c(cc3[C@@H](O[C@@H]3O[C@@H]5CO[C@@H](C)O[C@H]5[C@H](O)[C@H]3O)[C@H]3COC(=O)[C@H]23)OCO4)cc(OC)c1O [Etoposide]
Bioavailability of oral etoposide: 40-75%
